From patent US10000496B2, “Compositions useful for treating disorders related to kit and PDGFR” (BLUEPRINT MEDICINES CORPORATION, priority 2015, dated 2018)

Tests used:
[1] = target: T1, D816V Kit (Homo sapiens, UniProt P10721, D816V); assay: Kit D816V assay at Km (Caliper electrophoretic mobility shift); settings: D816V Kit 0.5 nM, 15 uM ATP (Km), 1 uM Srctide, 25 C, 90 minutes; read-out: Biochemical Activity D816V IC50
T1 construct: purchased Carna Bioscience 08-156
Method: In order to assess the activity of chemical compounds against the relevant kinase of interest, the Caliper LifeSciences electrophoretic mobility shift technology platform is used. Fluorescently labeled substrate peptide is incubated in the presence of kinase and ATP so that a […] proportion of the peptide is phosphorylated. At the end of the reaction, the mix of phosphorylated (product) and non-phosphorylated (substrate) peptides are passed through the microfluidic system of the Caliper EZ Reader 2, under an applied potential difference. The presence of the phosphate group on the product peptide provides a difference in mass and charge between those of the substrate peptide, resulting in a separation of the substrate and product pools in the sample. As the pools pass a LEDS within the instrument, these pools are detected and resolved as separate peaks. The ratio between these peaks therefore reflects the activity of the chemical matter at that concentration in that well, under those conditions.
Kit D816V assay at Km: In each well of a 384-well plate, 0.04 ng/ul (0.5 nM) of D816V Kit (Carna Bioscience 08-156) was incubated in a total of 12.5 ul of buffer (100 mM HEPES pH 7.5, 0.015% Brij 35, 10 mM MgCl2, 1 mM DTT) with 1 uM Srctide (5-FAM-GEEPLYWSFPAKKK-NH2) and 15 uM ATP at 25 C for 90 minutes in the presence or absence of a dosed concentration series of compound (1% DMSO final concentration). The reaction was stopped by the addition of 70 ul of Stop buffer (100 mM HEPES pH 7.5, 0.015% Brij 35, 35 mM EDTA and 0.2% of Coating Reagent 3 (Caliper Lifesciences)). The plate was then read on a Caliper EZReader 2 (protocol settings:—1.9 psi, upstream voltage—700, downstream voltage—3000, post sample sip 35s). Data was normalized to 0% and 100% inhibition controls and the IC50 or EC50 calculated using a 4-parameter fit using GraphPad Prism.

[2] = target: T2, Kit D816V in HMC1.2 cells (Homo sapiens, UniProt P10721, D816V/V560G); assay: HMC1.2 autophosphorylation assay (Kit autophosphorylation at tyrosine 719, AlphaLISA); format: cell-based; settings: HMC1.2 mast cell leukemia cells (Kit V560G and D816V), phospho-Y719 c-Kit, 90 minutes; read-out: Cellular Activity IC50
T2 construct: endogenous in cells; host or cells: HMC1.2
Method: 10,000 HMC1.2 cells were incubated in 22 ul culture media (phenol-red free IMDM, no serum) in each well of a 384-well plate and serum starved overnight in a tissue culture incubator (5% CO2, 37° C.). A 10-point dose concentration series of compound (25 uM-95.4 pM) were then added to the cells in a volume of 3.1 ul to each well (0.25% DMSO final concentration). After 90 minutes, 6 ul of 5× AlphaLISA Lysis Buffer (Perkin Elmer) supplemented with a protease and phosphatase inhibitor cocktail (Cell Signaling Technologies) was added to each well and shaken at 450 rpm for 15 minutes at 4° C. 10 ul of phospho-Y719 c-Kit and total c-Kit antibodies (15 nM final concentration, Cell Signaling Technologies) and 50 ug/ml AlphaLISA rabbit acceptor beads (Perkin Elmer) were added to each well and shaken at 300 rpm at room temperature for 2 hours. 10 ul of 100 ug/ml streptavidin donor beads (Perkin Elmer) were added to each well, blocked from light with aluminum adhesive and shaken at 300 rpm at room temperature for 2 hours. Fluorescence signal was obtained on Envision (Perkin Elmer) by AlphaScreen 384 well HTS protocol. Data was normalized to 0% and 100% inhibition controls and the IC50 was calculated using Four Parameter Logistic IC50 curve fitting.
This cell line contains Kit mutated at positions V560G and D816V resulting in constitutive activation of the kinase. The following compounds were tested in an assay to measure direct inhibition of Kit D816V kinase activity by assaying Kit autophosphorylation at tyrosine 719 on the Kit protein.

T2 sequence (P10721 26-976 V560G/D816V): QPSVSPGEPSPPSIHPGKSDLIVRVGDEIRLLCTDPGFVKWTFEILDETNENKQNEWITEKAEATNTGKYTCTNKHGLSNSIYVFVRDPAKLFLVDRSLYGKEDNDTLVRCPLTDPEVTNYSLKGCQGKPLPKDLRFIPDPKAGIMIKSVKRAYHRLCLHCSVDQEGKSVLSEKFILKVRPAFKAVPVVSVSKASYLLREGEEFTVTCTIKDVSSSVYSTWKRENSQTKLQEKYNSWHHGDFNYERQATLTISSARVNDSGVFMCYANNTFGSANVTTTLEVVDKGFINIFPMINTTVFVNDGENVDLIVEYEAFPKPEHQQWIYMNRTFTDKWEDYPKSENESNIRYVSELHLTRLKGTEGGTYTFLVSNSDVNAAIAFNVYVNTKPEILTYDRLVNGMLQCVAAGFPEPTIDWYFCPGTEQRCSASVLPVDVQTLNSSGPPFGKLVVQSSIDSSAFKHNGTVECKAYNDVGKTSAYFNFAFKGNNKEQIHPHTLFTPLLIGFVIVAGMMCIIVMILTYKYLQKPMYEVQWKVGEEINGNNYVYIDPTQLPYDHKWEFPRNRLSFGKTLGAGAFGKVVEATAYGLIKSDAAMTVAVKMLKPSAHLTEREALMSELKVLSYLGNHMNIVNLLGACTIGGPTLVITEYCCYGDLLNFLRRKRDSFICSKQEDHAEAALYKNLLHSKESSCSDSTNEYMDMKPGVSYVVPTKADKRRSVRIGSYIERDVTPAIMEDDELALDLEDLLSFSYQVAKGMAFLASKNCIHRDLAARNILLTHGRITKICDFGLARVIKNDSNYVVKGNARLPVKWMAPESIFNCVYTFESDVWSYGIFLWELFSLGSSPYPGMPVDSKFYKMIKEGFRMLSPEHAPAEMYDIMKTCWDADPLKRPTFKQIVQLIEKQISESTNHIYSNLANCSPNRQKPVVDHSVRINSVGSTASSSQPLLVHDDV
T1 sequence (P10721 26-976 D816V): as the sequence (P10721 26-976 V560G/D816V) above, with G535V counted along it

SMILES | IC50 [1] [nM] | IC50 [2] [nM]
Cn1cc(-c2cc3c(-c4ccc(NS(C)(=O)=O)cc4)ncnn3c2)cn1 [Compound 1] | 1.01 to 10 | 1000 to 10000
CC(C)S(=O)(=O)Nc1ccc(-c2ncnn3cc(-c4cnn(C)c4)cc23)cc1 [Compound 2] | 10 to 100 | > 10000
Cn1cc(-c2cc3c(-c4ccc(NC(=O)Cc5ccccc5)cc4)ncnn3c2)cn1 [Compound 3] | 1.01 to 10 | 10 to 100
Cn1cc(-c2cc3c(-c4ccc(NC(=O)Cc5cccnc5)cc4)ncnn3c2)cn1 [Compound 4] | 1.01 to 10 | 1000 to 10000
Cn1cc(-c2cc3c(-c4ccc(NC(=O)Cc5ccccn5)cc4)ncnn3c2)cn1 [Compound 5] | 10 to 100 | 1000 to 10000
Cn1cc(CC(=O)Nc2ccc(-c3ncnn4cc(-c5cnn(C)c5)cc34)cc2)cn1 [Compound 6] | 10 to 100 | 1000 to 10000
Cn1cc(-c2cc3c(-c4ccc(NC(=O)c5ccc(C#N)cc5)cc4)ncnn3c2)cn1 [Compound 7] | 10 to 100 | 
Cc1ccc(CC(=O)Nc2ccc(-c3ncnn4cc(-c5cnn(C)c5)cc34)cc2)cc1 [Compound 8] | 1.01 to 10 | 10 to 100
Cn1cc(-c2cc3c(-c4ccc(NC(=O)NCc5ccccc5)cc4)ncnn3c2)cn1 [Compound 9, 1-benzyl-3-(4-(6-(1-methyl-1H-pyrazol-4-yl)pyrrolo[1,2-f][1,2,4]triazin-4-yl)phenyl)urea] | 10 to 100 | 100 to 1000
Cn1cc(-c2cc3c(-c4ccc(NC(=O)C(O)c5ccccc5)cc4)ncnn3c2)cn1 (stereo not shown) [Compound 10] | < 1 | 
Cn1cc(-c2cc3c(-c4ccc(NC(=O)Cc5ccc(F)cc5)cc4)ncnn3c2)cn1 [Compound 11] | 1.01 to 10 | 10 to 100
Cn1cc(-c2cc3c(-c4ccc(NC(=O)c5ccc(Cl)cc5)cc4)ncnn3c2)cn1 [Compound 12] | > 100 | 
Cn1cc(-c2cc3c(-c4ccc(NS(=O)(=O)c5ccccc5)cc4)ncnn3c2)cn1 [Compound 13] | 1.01 to 10 | 100 to 1000
CN(C)C(=O)c1ccc(-c2cc3c(-c4ccc(NS(C)(=O)=O)cc4)ncnn3c2)cc1 [Compound 14] | 1.01 to 10 | 100 to 1000
COC(C(=O)Nc1ccc(-c2ncnn3cc(-c4cnn(C)c4)cc23)cc1)c1ccccc1 (stereo not shown) [Compound 15] | 1.01 to 10 | 
CS(=O)(=O)Nc1ccc(-c2ncnn3cc(-c4ccc(S(C)(=O)=O)cc4)cc23)cc1 [Compound 16] | 1.01 to 10 | 100 to 1000
Cn1cc(-c2cc3c(-c4ccc(NC(=O)Cc5ccc(Cl)cc5)cc4)ncnn3c2)cn1 [Compound 17] | 1.01 to 10 | 10 to 100
Cn1cc(-c2cc3c(-c4ccc(NC(=O)Cc5cccc(Cl)c5)cc4)ncnn3c2)cn1 [Compound 18] | 1.01 to 10 | 100 to 1000
Cn1cc(-c2cc3c(-c4ccc(NC(=O)Cc5ccccc5Cl)cc4)ncnn3c2)cn1 [Compound 19] | 1.01 to 10 | 100 to 1000
Cn1cc(-c2cc3c(-c4ccc(NC(=O)Cc5ccc(Cl)nc5)cc4)ncnn3c2)cn1 [Compound 20] | 1.01 to 10 | 10 to 100
Cn1cc(-c2cc3c(-c4ccc(NC(=O)Nc5ccc(Cl)cc5)cc4)ncnn3c2)cn1 [Compound 21] | > 100 | 

SMILES | IC50 [1] [nM] | IC50 [2] [nM]
Cc1ccc(S(=O)(=O)Nc2ccc(-c3ncnn4cc(-c5cnn(C)c5)cc34)cc2)cc1 [Compound 22] | 1.01 to 10 | 10 to 100
Cn1cc(-c2cc3c(-c4ccc(NC(=O)Cc5c[nH]c6ccccc56)cc4)ncnn3c2)cn1 [Compound 23] | 1.01 to 10 | 10 to 100
Cn1cc(-c2cc3c(-c4ccc(NS(=O)(=O)c5ccc(F)cc5)cc4)ncnn3c2)cn1 [Compound 24] | 1.01 to 10 | 100 to 1000
Cn1cc(-c2cc3c(-c4ccc(NS(=O)(=O)CC5COCCO5)cc4)ncnn3c2)cn1 (stereo not shown) [Compound 25] | 10 to 100 | 1000 to 10000
Cn1cc(-c2cc3c(-c4ccc(NS(=O)(=O)c5ccc(C#N)cc5)cc4)ncnn3c2)cn1 [Compound 26] | 1.01 to 10 | 1000 to 10000
O=C(Cc1ccc(Cl)cc1)Nc1ccc(-c2ncnn3cc(-c4ccc(F)cc4)cc23)cc1 [Compound 27] | 10 to 100 | 1000 to 10000
C[C@@H](C(=O)Nc1ccc(-c2ncnn3cc(-c4cnn(C)c4)cc23)cc1)c1ccc(Cl)cc1 [Compound 28] | 1.01 to 10 | < 10
CC(C(=O)Nc1ccc(-c2ncnn3cc(-c4cnn(C)c4)cc23)cc1)c1ccc(Cl)cc1 (stereo not shown) [Compound 29] | 1.01 to 10 | < 10
C[C@H](C(=O)Nc1ccc(-c2ncnn3cc(-c4cnn(C)c4)cc23)cc1)c1ccc(Cl)cc1 [Compound 30] | 10 to 100 | 100 to 1000
Cn1cc(-c2cc3c(-c4ccc(NC(=O)C(N)c5ccc(Cl)cc5)cc4)ncnn3c2)cn1 (stereo not shown) [Compound 31, 2-amino-2-(4-chlorophenyl)-N-(4-(6-(1-methyl-1H-pyrazol-4-yl)pyrrolo[1,2-f][1,2,4]triazin-4-yl)phenyl)acetamide] | 1.01 to 10 | < 10
Cn1cc(-c2cc3c(-c4ccc(NC(=O)[C@H](O)c5ccc(Cl)cc5)cc4)ncnn3c2)cn1 [Compound 32, 2-(4-chlorophenyl)-2-hydroxy-N-(4-(6-(1-methyl-1H-pyrazol-4-yl)pyrrolo[1,2-f][1,2,4]triazin-4-yl)phenyl)acetamide] | < 1 | < 10
Cn1cc(-c2cc3c(-c4ccc(NC(=O)C(O)c5ccc(Cl)cc5)cc4)ncnn3c2)cn1 (stereo not shown) [Compound 33, 2-(4-chlorophenyl)-2-hydroxy-N-(4-(6-(1-methyl-1H-pyrazol-4-yl)pyrrolo[1,2-f][1,2,4]triazin-4-yl)phenyl)acetamide] | 1.01 to 10 | < 10
Cn1cc(-c2cc3c(-c4ccc(NC(=O)[C@@H](O)c5ccc(Cl)cc5)cc4)ncnn3c2)cn1 [Compound 34, 2-(4-chlorophenyl)-2-hydroxy-N-(4-(6-(1-methyl-1H-pyrazol-4-yl)pyrrolo[1,2-f][1,2,4]triazin-4-yl)phenyl)acetamide] | 1.01 to 10 | 10 to 100
COc1ccc(S(=O)(=O)Nc2ccc(-c3ncnn4cc(-c5cnn(C)c5)cc34)cc2)cc1 [Compound 35] | 1.01 to 10 | 100 to 1000
Cn1cc(-c2cc3c(-c4ccc(NS(=O)(=O)c5ccc(Cl)cc5)cc4)ncnn3c2)cn1 [Compound 36] | < 1 | 10 to 100
Cn1cc(-c2cc3c(-c4ccc(NS(=O)(=O)c5cccc(Cl)c5)cc4)ncnn3c2)cn1 [Compound 37] | 10 to 100 | 100 to 1000
Cn1cc(-c2cc3c(-c4ccc(NS(=O)(=O)c5ccccc5Cl)cc4)ncnn3c2)cn1 [Compound 38] | 10 to 100 | 1000 to 10000
Cn1cc(-c2cc3c(-c4ccc(NC(=O)C5(c6ccc(Cl)cc6)CC5)cc4)ncnn3c2)cn1 [Compound 39] | 10 to 100 | 100 to 1000
Cn1cc(-c2cc3c(-c4ccc(NS(=O)(=O)Cc5ccc(C#N)cc5)cc4)ncnn3c2)cn1 [Compound 40] | < 1 | 10 to 100
Cn1cc(-c2cc3c(-c4ccc(NC(=O)C(C)(C)c5ccc(Cl)cc5)cc4)ncnn3c2)cn1 [Compound 41, 2-(4-chlorophenyl)-2-methyl-N-(4-(6-(1-methyl-1H-pyrazol-4-yl)pyrrolo[1,2-f][1,2,4]triazin-4-yl)phenyl)propanamide] | < 1 | 10 to 100
CC[C@@H](C(=O)Nc1ccc(-c2ncnn3cc(-c4cnn(C)c4)cc23)cc1)c1ccc(Cl)cc1 [Compound 42] | 1.01 to 10 | < 10
